Experimental data from US12043600B2, “Microbiocidal compounds” (SYNGENTA CROP PROTECTION AG, priority 2018, dated 2024).
Where two headings read alike, the source gives them in different places.

Legend:
Alternaria solani = assay: Alternaria solani/Tomato/Leaf Disc (Early Blight); type: in vivo; conditions: foliar, tomato leaf disc, compared to untreated control
Experimental: Tomato leaf disks cv. Baby are placed on agar in multiwell plates (24-well format) and sprayed with the formulated test compound diluted in water. The leaf disks are inoculated with a spore suspension of the fungus 2 days after application. The inoculated leaf disks are incubated at 23° C./21° C. (day/night) and 80% rh (relative humidity) under a light regime of 12/12 h (light/dark) in a climate cabinet and the activity of a compound is assessed as percent disease control compared to untreated when an appropriate level of disease damage appears on untreated check disk leaf disks (5-7 days after application).

[1] = system: Glomerella lagenarium (Colletotrichum lagenarium); assay: Glomerella lagenarium (Colletotrichum lagenarium)/Liquid Culture (Anthracnose); type: cell-based; conditions: Colletotrichum orbiculare, liquid culture, compared to untreated control
[2] = system: Blumeria graminis f. sp. tritici (Erysiphe graminis f. sp. tritici); assay: Blumeria graminis f. sp. tritici/Wheat/Leaf Disc Preventative (Powdery Mildew on Wheat); type: in vivo; conditions: foliar, wheat leaf disc preventative, compared to untreated control
In short: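 Wheat cv. Kanzler leaf segments on agar sprayed with formulated compound, inoculated with powdery mildew 1 day later and held at 20° C, 60% rh (24 h dark, then 12 h light/12 h dark). Percent disease control versus untreated scored 6-8 days after application.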

[3] = system: Phaeosphaeria nodorum (Septoria nodorum); assay: Phaeosphaeria nodorum (Septoria nodorum)/Wheat/Leaf Disc Preventative (Glume Blotch); type: in vivo; conditions: Parastagonospora nodorum, foliar, wheat leaf disc preventative, compared to untreated control
In short: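 Wheat cv. Kanzler leaf discs on agar were sprayed with formulated compound diluted in water and inoculated with P. nodorum spores 2 days later. Discs kept at 20 °C, 75% rh, 12 h light/dark; percent disease control versus untreated scored 5–7 days after application.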

[4] = system: Monographella nivalis (Microdochium nivale); assay: Monographella nivalis (Microdochium nivale)/Liquid Culture (Foot Rot Cereals); type: cell-based; conditions: liquid culture, compared to untreated control
In short: (§1)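 Test compound dissolved in DMSO is dispensed first; nutrient broth (potato dextrose) carrying conidia thawed from cryogenic storage follows.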

[5] = system: Mycosphaerella arachidis (Cercospora arachidicola); assay: Mycosphaerella arachidis (Cercospora arachidicola)/Liquid Culture (Early Leaf Spot); type: cell-based; conditions: liquid culture, compared to untreated control
In short: as §1

Phytophthora infestans = assay: whole plant or invertebrate; type: in vivo; conditions: in Solanum lycopersicum, foliar, read-out: control of Phytophthora infestans
Plasmopara viticola = assay: whole plant or invertebrate; type: in vivo; conditions: foliar, read-out: control of Plasmopara viticola
[6] = system: Puccinia recondita f. sp. tritici; assay: Puccinia recondita f. sp. tritici/Wheat/Leaf Disc Curative (Brown Rust); type: in vivo; conditions: foliar, wheat leaf disc curative, compared to untreated control
In short: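 Curative leaf-disc test on wheat cv. Kanzler segments on agar, spore-inoculated and kept dark at 19° C, 75% rh; formulated compound in water applied 1 day after inoculation. Incubated at 19° C, 75% rh, 12 h light/12 h dark; percent disease control versus untreated scored 6-8 days after application.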

[7] = system: Puccinia recondita f. sp. tritici; assay: Puccinia recondita f. sp. tritici/Wheat/Leaf Disc Preventative (Brown Rust); type: in vivo; conditions: foliar, 200 ppm, wheat leaf disc preventative, compared to untreated control, read-out: control of Puccinia recondita f. sp. tritici
[8] = system: Magnaporthe grisea (Pyricularia oryzae); assay: whole plant or invertebrate; type: in vivo; conditions: foliar, read-out: control of Magnaporthe grisea
Pyrenophora teres = assay: Pyrenophora teres/Barley/Leaf Disc Preventative (Net Blotch); type: in vivo; conditions: foliar, 200 ppm, barley leaf disc preventative, compared to untreated control, read-out: control of Pyrenophora teres
In short: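 Formulated compound, diluted in water, sprayed onto barley cv. Hasso leaf segments on agar; spore suspension inoculation followed 2 days after application. Results expressed as percentage disease control.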

[9] = system: Mycosphaerella graminicola (Septoria tritici); assay: Mycosphaerella graminicola (Septoria tritici)/Liquid Culture (Septoria Blotch); type: cell-based; conditions: Zymoseptoria tritici; 20 ppm; liquid culture; compared to untreated control
In short: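 Conidia from cryogenic storage mixed into potato dextrose broth and added to microtiter wells already holding DMSO solutions of test compound. Activity expressed as percentage disease control.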

[10] = system: Botryotinia fuckeliana (Botrytis cinerea); assay: Botryotinia fuckeliana (Botrytis cinerea)/Liquid Culture (Gray Mould); type: cell-based; conditions: liquid culture, compared to untreated control
Experimental: Conidia of the fungus from cryogenic storage are directly mixed into nutrient broth (Vogels broth). After placing a (DMSO) solution of test compound into a microtiter plate (96-well format), the nutrient broth containing the fungal spores is added.

Phakopsora pachyrhizi = assay: Phakopsora pachyrhizi/Soybean/Preventative (Soybean Rust); type: in vivo; conditions: 288 h
[11] = system: Thanatephorus cucumeris (Rhizoctonia solani); assay: Thanatephorus cucumeris (Rhizoctonia solani)/Liquid Culture (Foot Rot, Damping-Off); type: cell-based; conditions: liquid culture, compared to untreated control
Experimental: Mycelia fragments of a newly grown liquid culture of the fungus are directly mixed into nutrient broth (PDB potato dextrose broth). After placing a (DMSO) solution of the test compounds into a microtiter plate (96-well format), the nutrient broth containing the fungal material is added.

[12] = foliar, soybean leaf disc preventative, compared to untreated control, read-out: control of Phakopsora pachyrhizi

SMILES	pest or weed control at 200 ppm (Alternaria solani)	inhibition of growth at 20 ppm [1]	pest or weed control at 200 ppm [2]	pest or weed control at 200 ppm [3]	inhibition of growth at 20 ppm [4]	inhibition of growth at 20 ppm [5]	pest or weed control at 200 ppm (Phytophthora infestans)	pest or weed control at 200 ppm (Plasmopara viticola)	pest or weed control at 200 ppm [6]	pest or weed control at 200 ppm [7]	pest or weed control at 200 ppm [8]	pest or weed control at 200 ppm (Pyrenophora teres)	inhibition of growth at 20 ppm [9]	melting point	inhibition of growth at 20 ppm [10]	further results
CO/C=C(\Oc1cc(-n2ncc(C(C)=NO)n2)ccc1C)C(=O)OC [Compound F-13, methyl (Z)-2-[5-[4-(N-hydroxy-C-methyl-carbonimidoyl)triazol-2-yl]-2-methyl-phenoxy]-3-methoxy-prop-2-enoate]	≥ 80%	≥ 80%	≥ 80%	≥ 80%	≥ 80%	≥ 80%	≥ 80%	≥ 80%	≥ 80%	≥ 80%	≥ 80%	≥ 80%	≥ 80%	146 to 150 °C		
CCOc1cnn(-c2ccc(C)c(O/C(=C\OC)C(=O)OC)c2)c1 [Compound E-52, methyl (Z)-2-[5-(4-ethoxypyrazol-1-yl)-2-methyl-phenoxy]-3-methoxy-prop-2-enoate]		≥ 80%			≥ 80%	≥ 80%	≥ 80%	≥ 80%		≥ 80%	≥ 80%		≥ 80%		≥ 80%	pest or weed control at 200 ppm (Phakopsora pachyrhizi; [12]): ≥ 50%; inhibition of growth at 20 ppm [11]: ≥ 80%
CO/C=C(\Oc1cc(-n2ccc(C#CC3CC3)n2)ccc1C)C(=O)OC [Compound E-1, methyl (Z)-2-[5-[3-(2-cyclopropylethynyl)pyra-zol-1-yl]-2-methyl-phenoxy]-3-methoxy-prop-2-enoate]	≥ 80%			≥ 80%	≥ 80%	≥ 80%	≥ 80%	≥ 80%		≥ 80%	≥ 80%	≥ 80%	≥ 80%	158 to 162 °C		
CO/C=C(\Oc1cc(-n2ncc(C3CCCC3)n2)ccc1C)C(=O)OC [Compound F-5, methyl (Z)-2-[5-(4-cyclopentyltriazol-2-yl)-2-methyl-phenoxy]-3-methoxy-prop-2-enoate]	≥ 80%	≥ 80%	≥ 80%	≥ 80%	≥ 80%	≥ 80%	≥ 80%	≥ 80%	≥ 80%	≥ 80%	≥ 80%	≥ 80%	≥ 80%			
CO/C=C(\Oc1cc(-n2ccc(Br)n2)ccc1C)C(=O)OC [Compound E-83, methyl (Z)-2-[5-(3-bromopyrazol-1-yl)-2-methyl-phenoxy]-3-methoxy-prop-2-enoate]	≥ 80%	≥ 80%	≥ 80%	≥ 80%	≥ 80%	≥ 80%	≥ 80%	≥ 80%		≥ 80%	≥ 80%	≥ 80%	≥ 80%	106 to 110 °C		
CO/C=C(\Oc1cc(-n2nc(Br)c(Br)n2)ccc1C)C(=O)OC [Compound F-10, methyl (Z)-2-[5-(4,5-dibromotriazol-2-yl)-2-methyl-phenoxy]-3-methoxy-prop-2-enoate]	≥ 80%	≥ 80%	≥ 80%	≥ 80%		≥ 80%	≥ 80%	≥ 80%		≥ 80%	≥ 80%	≥ 80%	≥ 80%			
CO/C=C(\Oc1cc(-n2ccc(C3(C)CC3)n2)ccc1C)C(=O)OC [Compound E-82, methyl (Z)-3-methoxy-2-[2-methyl-5-[3-(1-methylcyclopropyl)pyra-zol-1-yl]phenoxy]prop-2-enoate]	≥ 80%	≥ 80%	≥ 80%	≥ 80%	≥ 80%	≥ 80%	≥ 80%	≥ 80%	≥ 80%	≥ 80%	≥ 80%	≥ 80%	≥ 80%	83 to 86 °C	≥ 80%	pest or weed control at 200 ppm (Phakopsora pachyrhizi; [12]): ≥ 50%
CO/C=C(\Oc1cc(-n2ncc(Br)n2)ccc1C)C(=O)OC [Compound F-1, methyl (Z)-2-[5-(4-bromotriazol-2-yl)-2-methyl-phenoxy]-3-methoxy-prop-2-enoate]	≥ 80%	≥ 80%	≥ 80%	≥ 80%	≥ 80%	≥ 80%	≥ 80%	≥ 80%	≥ 80%	≥ 80%	≥ 80%	≥ 80%	≥ 80%			
CCCc1cnn(-c2ccc(C)c(O/C(=C\OC)C(=O)OC)c2)n1 [Compound F-2, methyl (Z)-3-methoxy-2-[2-methyl-5-(4-propyltriazol-2-yl)phenoxy]prop-2-enoate]	≥ 80%	≥ 80%		≥ 80%	≥ 80%	≥ 80%	≥ 80%	≥ 80%			≥ 80%	≥ 80%	≥ 80%			pest or weed control at 0.6 ppm (Phakopsora pachyrhizi; Phakopsora pachyrhizi (Soybean rust), 0.6 ppm): 0%; pest or weed control at 2 ppm (Phakopsora pachyrhizi; Phakopsora pachyrhizi (Soybean rust), 2 ppm): 20%; pest or weed control at 6 ppm (Phakopsora pachyrhizi; Phakopsora pachyrhizi (Soybean rust), 6 ppm): 50%; pest or weed control at 20 ppm (Phakopsora pachyrhizi; Phakopsora pachyrhizi (Soybean rust), 20 ppm): 90%; pest or weed control at 60 ppm (Phakopsora pachyrhizi; Phakopsora pachyrhizi (Soybean rust), 60 ppm): 100%; pest or weed control at 200 ppm (Phakopsora pachyrhizi; Phakopsora pachyrhizi (Soybean rust), read-out: control (%)): 100%
CO/C=C(\Oc1cc(-n2cc(SC(C)C)cn2)ccc1C)C(=O)OC [Compound E-53, methyl (Z)-2-[5-(4-isopropylsulfanylpyrazol-1-yl)-2-methyl-phenoxy]-3-methoxy-prop-2-enoate]		≥ 80%		≥ 80%	≥ 80%	≥ 80%	≥ 80%	≥ 80%		≥ 80%	≥ 80%		≥ 80%		≥ 80%	inhibition of growth at 20 ppm [11]: ≥ 80%
